pIC50: −log10 of the molar value. Where two headings read alike, the source gives them in different places.
Assays:
[1] = target: T1, mFsp1 (mouse FSP1) (Mus musculus, UniProt Q8BUE4); experiment: resazurin reduction, fluorescence; type: biochemical
T1 construct: gene Aifm2; recombinant from E. coli BL21, Ni-NTA purified; HA-tagged, codon-optimized in Pfa1 cells for cell assays
T1 sequence (Q8BUE4 2-373): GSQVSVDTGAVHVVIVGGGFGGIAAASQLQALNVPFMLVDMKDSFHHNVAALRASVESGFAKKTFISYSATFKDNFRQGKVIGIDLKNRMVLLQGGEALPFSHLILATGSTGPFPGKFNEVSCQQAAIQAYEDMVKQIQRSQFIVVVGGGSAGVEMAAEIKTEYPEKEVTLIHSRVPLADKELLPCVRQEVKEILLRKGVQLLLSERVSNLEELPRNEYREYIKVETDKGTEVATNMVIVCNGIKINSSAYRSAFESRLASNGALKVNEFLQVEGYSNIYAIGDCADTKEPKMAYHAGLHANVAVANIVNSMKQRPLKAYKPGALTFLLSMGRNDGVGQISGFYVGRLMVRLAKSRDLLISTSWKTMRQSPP
Description: resazurin reduction, fluorescence on mFsp1 (mouse FSP1) | both hFSP1 and mFsp1 enzyme activity are equally sensitive to viFSP1

[2] = target: T2, hFSP1 (human FSP1) (Homo sapiens, UniProt Q9BRQ8); experiment: resazurin reduction, fluorescence; type: biochemical
T2 construct: gene AIFM2; recombinant from E. coli BL21, Ni-NTA purified (His tag implied); HA-tagged in Pfa1 cells for cell assays; cDNA carries C>T:1008 (probably silent)
T2 sequence (Q9BRQ8 2-373): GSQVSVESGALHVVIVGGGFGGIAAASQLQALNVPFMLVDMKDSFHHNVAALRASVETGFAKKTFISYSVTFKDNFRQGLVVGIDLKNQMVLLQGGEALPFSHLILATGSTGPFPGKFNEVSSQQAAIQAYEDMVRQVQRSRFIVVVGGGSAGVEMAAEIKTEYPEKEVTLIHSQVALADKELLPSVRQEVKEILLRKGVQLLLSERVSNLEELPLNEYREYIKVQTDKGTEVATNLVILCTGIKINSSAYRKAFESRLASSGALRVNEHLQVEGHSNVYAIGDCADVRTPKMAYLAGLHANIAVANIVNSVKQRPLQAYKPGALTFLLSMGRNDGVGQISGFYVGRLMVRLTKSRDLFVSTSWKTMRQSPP

COc1ccc(N2CC(=O)C(c3nc(C)cs3)=C2N)c(OC)c1 [viFSP1]
pIC50 [1]: 7.08 | pIC50 ([2]; read-out: IC50): 7.47

Cc1ccc(-c2c(C#N)c(N)n3c(nc4ccccc43)c2C#N)cc1 [iFSP1]
IC50 ([2]; […] NADH, […] resazurin, TBS, […] C): dose–response curves for the effect of iFSP1 on the activity of FSP1 mutants

Reference: publication PMC10643123, “Integrated chemical and genetic screens unveil FSP1 mechanisms of ferroptosis regulation” (Nature Structural & Molecular Biology, 2023)
